Measurements taken from ChEMBL document CHEMBL1153810, “Sesquiterpene lactones from the root tubers of Lindera aggregata” (J Nat Prod, 2009).

test system: HepG2; experiment: Hepatoprotective activity in human HepG2 cells assessed as inhibition of H2O2- induced oxidative damage after 3 hrs by leucocrstal violet dye treated 1 hr before H2O2 challenge; assay type: functional, cell-based

SMILES | EC50
C=C1CC=C[C@]2(C)C[C@]3(O)OC(=O)C(C)C3=C[C@@H]12 (some centres undefined) [HYDROXYLINDESTENOLIDE] | 42.4 µM
CC1=CC[C@@H](O)[C@]2(C)CC3(O)OC(=O)C(C)=C3[C@H](O)[C@@H]12 (some centres undefined) [LINDERAGALACTONE E] | 67.5 µM
C/C1=C\CCC2=C[C@@H](OC2=O)c2c(C)coc2C1 [LINDERALACTONE] | 98 µM
C/C1=C\CC[C@]23O[C@H]2[C@@H](OC3=O)c2c(C)coc2C1 [LINDERANE] | 167 µM
